Data from patent US20240174647A1 (NEURON23, INC., priority 2022, published 2024).
pIC50: −log10 of the molar value.

Target: wt human LRRK2, catalytic site (Homo sapiens (Human), UniProt Q5S007)
Experiment: TR-FRET LanthaScreen Tb Kinase Activity Assay (LRRK2 kinase inhibition)
Assay type: biochemical
Settings: 2 nM wt human LRRK2, 400 nM fluorescein-ERM (LRRKtide) peptide, 38 μM ATP, 120 minutes at room temperature
In short: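 LanthaScreen TR-FRET with 2 nM wt human LRRK2 catalytic site, 400 nM fluorescein-ERM (LRRKtide) peptide and 38 µM ATP in Kinase Buffer A; 120 min at room temperature. Phosphorylation detected with EDTA and Tb-anti-pLRRKtide after 60 min; IC50 from emission ratios.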

Sequence of wt human LRRK2, catalytic site (Q5S007 1879-2138): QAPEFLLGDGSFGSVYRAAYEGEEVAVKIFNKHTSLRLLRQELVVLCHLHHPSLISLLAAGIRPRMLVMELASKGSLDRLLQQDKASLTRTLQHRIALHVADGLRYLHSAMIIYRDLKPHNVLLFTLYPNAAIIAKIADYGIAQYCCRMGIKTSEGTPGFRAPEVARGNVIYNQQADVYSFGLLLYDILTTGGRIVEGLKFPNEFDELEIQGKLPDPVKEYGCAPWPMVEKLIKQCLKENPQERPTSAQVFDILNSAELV

SMILES: CNc1nc(Nc2ccc3c4c2cnn4CCCO3)ncc1C(F)(F)F [Example 161]
- pIC50: > 7.30

SMILES: CNc1nc(Nc2cc3[nH]ncc3cc2C(F)(F)F)ncc1C(F)(F)F [Example 123, N^4-methyl-5-(trifluoromethyl)-N^2-[5-(trifluoromethyl)-1H-indazol-6-yl]pyrimidine-2,4-diamine]
- pIC50: ≤ 6.70

SMILES: CNc1nc(Nc2ccc3[nH]ncc3c2)ncc1C(F)(F)F [Example 72, N2-(1H-indazol-5-yl)-N4-methyl-5-(trifluoromethyl)pyrimidine-2,4-diamine]
- pIC50: > 7.30

SMILES: CC(C)(C#N)n1ncc2c(Nc3ncc(C(F)(F)F)c(NCCF)n3)cccc21 [Example 144, 2-(4-((4-((2-fluoroethyl)amino)-5-(trifluoromethyl)pyrimidin-2-yl)amino)-1H-indazol-1-yl)-2-methylpropanenitrile]
- pIC50: > 7.30

SMILES: FCCNc1nc(Nc2cccc3c2cnn3CC(F)F)ncc1C(F)(F)F [Example 142, N^2-[1-(2,2-difluoroethyl)indazol-4-yl]-N^4-(2-fluoroethyl)-5-(trifluoromethyl) pyrimidine-2,4-diamine]
- pIC50: > 7.30

SMILES: CNc1nc(Nc2cc(CCC(=O)N3CCOCC3)cc3[nH]ncc23)ncc1C(F)(F)F [Example 53, 3-(4-((4-(methylamino)-5-(trifluoromethyl)pyrimidin-2-yl)amino)-1H-indazol-6-yl)-1-morpholinopropan-1-one]
- pIC50: 6.70 to 7.30

SMILES: O=S(=O)(C1CC1)n1ncc2c(Nc3ncc(C(F)(F)F)c(NC4CC4)n3)cccc21 [Example 78, N4-cyclopropyl-N2-(1-(cyclopropylsulfonyl)-1H-indazol-4-yl)-5-(trifluoromethyl)pyrimidine-2,4-diamine]
- pIC50: > 7.30

SMILES: CNc1nc(Nc2cc3[nH]ncc3cc2OC(F)(F)F)ncc1C(F)(F)F [Example 129, N4-methyl-N2-[5-(trifluoromethoxy)-1H-indazol-6-yl]-5-(trifluoromethyl) pyrimidine-2,4-diamine]
- pIC50: > 7.30

SMILES: OCCNc1nc(Nc2cccc3c2cnn3CC(F)F)ncc1C(F)(F)F [Example 141, 2-[[2-[[1-(2,2-difluoroethyl)indazol-4-yl]amino]-5-(trifluoromethyl)pyrimidin-4-yl]amino]ethanol]
- pIC50: > 7.30

SMILES: CNc1nc(Nc2cc(C(F)(F)F)cc3c2cnn3CC#N)ncc1C(F)(F)F [Example 90, 2-(4-((4-(methylamino)-5-(trifluoromethyl)pyrimidin-2-yl)amino)-6-(trifluoromethyl)-1H-indazol-1-yl)acetonitrile]
- pIC50: > 7.30

SMILES: CNc1nc(Nc2ccc3cnn(C)c3c2)ncc1C(F)(F)F [Example 12, N4-methyl-N2-(1-methyl-1H-indazol-6-yl)-5-(trifluoromethyl)pyrimidine-2,4-diamine]
- pIC50: > 7.30

SMILES: CNc1nc(Nc2cccc3c2cnn3CCC(=O)N2CCOCC2)ncc1C(F)(F)F [Example 77, 3-(4-((4-(methylamino)-5-(trifluoromethyl)pyrimidin-2-yl)amino)-1H-indazol-1-yl)-1-morpholinopropan-1-one]
- pIC50: > 7.30

SMILES: FC(F)(F)c1cnc(Nc2cccc3c2cnn3C2CC2)nc1NC1CC1 [Example 190, N^4-cyclopropyl-N^2-(1-cyclopropyl-1H-indazol-4-yl)-5-(trifluoromethyl) pyrimidine-2,4-diamine]
- pIC50: > 7.30

SMILES: CNc1nc(Nc2ccc3c(C#N)n[nH]c3c2)ncc1C(F)(F)F [Example 8, 6-((4-(methylamino)-5-(trifluoromethyl)pyrimidin-2-yl)amino)-1H-indazole-3-carbonitrile]
- pIC50: ≤ 6.70

SMILES: COCCNc1nc(Nc2cccc3c2cnn3S(=O)(=O)C2CC2)ncc1C(F)(F)F [Example 145, N^2-(1-cyclopropylsulfonylindazol-4-yl)-N^4-(2-methoxyethyl)-5-(trifluoromethyl) pyrimidine-2,4-diamine]
- pIC50: > 7.30

SMILES: CNc1nc(Nc2c(C)[nH]c3c(C#N)cccc23)ncc1C(F)(F)F [Example 66, 2-methyl-3-((4-(methylamino)-5-(trifluoromethyl)pyrimidin-2-yl)amino)-1H-indole-7-carbonitrile]
- pIC50: 6.70 to 7.30

SMILES: CNc1nc(Nc2cccc3c2cnn3C(C)(C)C#N)ncc1C(F)(F)F [Example 31, 2-methyl-2-(4-((4-(methylamino)-5-(trifluoromethyl)pyrimidin-2-yl)amino)-1H-indazol-1-yl)propanenitrile]
- pIC50: > 7.30

SMILES: O=S(=O)(C1CC1)n1ncc2c(Nc3ncc(C(F)(F)F)c(C4CC4)n3)cccc21 [Example 132, N-(4-cyclopropyl-5-(trifluoromethyl)pyrimidin-2-yl)-1-(cyclopropylsulfonyl)-1H-indazol-4-amine]
- pIC50: 6.70 to 7.30

SMILES: CCNc1nc(Nc2ccc(F)c3c2cnn3CC(C)(C)O)nc2[nH]nc(C)c12 [Example 205, 1-[4-[[4-(ethylamino)-3-methyl-1H-pyrazolo[3,4-d]pyrimidin-6-yl]amino]-7-fluoro-indazol-1-yl]-2-methyl-propan-2-ol]
- pIC50: > 7.30

SMILES: CS(=O)(=O)CCn1ncc2c(Nc3nc(NC4CC4)c4c(Cl)c[nH]c4n3)cccc21 [Example 203, 5-chloro-N^4-cyclopropyl-N^2-(1-(2-(methylsulfonyl)ethyl)-1H-indazol-4-yl)-7H-pyrrolo[2,3-d]pyrimidine-2,4-diamine]
- pIC50: > 7.30

SMILES: CNc1nc(Nc2ccc3cnn(CC#N)c3c2)ncc1C(F)(F)F [Example 16, 2-(6-((4-(methylamino)-5-(trifluoromethyl)pyrimidin-2-yl)amino)-1H-indazol-1-yl)acetonitrile]
- pIC50: > 7.30

SMILES: CNc1nc(Nc2ccc3cn(C)nc3c2)ncc1C(F)(F)F [Example 17, N4-methyl-N2-(2-methyl-2H-indazol-6-yl)-5-(trifluoromethyl)pyrimidine-2,4-diamine]
- pIC50: > 7.30

SMILES: CNc1nc(Nc2c(OC)ccc3nn(C)cc23)ncc1C(F)(F)F [Example 40, N2-(5-methoxy-2-methyl-2H-indazol-4-yl)-N-methyl-5-(trifluoromethyl) pyrimidine-2,4-diamine]
- pIC50: ≤ 6.70

SMILES: CNc1nc(Nc2ccc3cn[nH]c3c2)ncc1C(F)(F)F [Example 1, N2-(1H-indazol-6-yl)-N4-methyl-5-(trifluoromethyl)pyrimidine-2,4-diamine]
- pIC50: > 7.30

SMILES: FC(F)Cn1ncc2c(Nc3ncc(C(F)(F)F)c(NC4CC4)n3)cccc21 [Example 134, N^4-cyclopropyl-N2-[1-(2,2-difluoroethyl)indazol-4-yl]-5-(trifluoromethyl) pyrimidine-2,4-diamine]
- pIC50: > 7.30

SMILES: CC(C)(O)Cn1ncc2c(Nc3ncc(C(F)(F)F)c(NC4CC4)n3)ccc(F)c21 [Example 172, 1-(4-((4-(cyclopropylamino)-5-(trifluoromethyl)pyrimidin-2-yl)amino)-7-fluoro-1H-indazol-1-yl)-2-methylpropan-2-ol]
- pIC50: > 7.30

SMILES: FC(F)(F)c1cnc(Nc2cccc3c2cnn3CC2COC2)nc1NC1CC1 [Example 197, N^4-cyclopropyl-N^2-(1-(oxetan-3-ylmethyl)-1H-indazol-4-yl)-5-(trifluoromethyl) pyrimidine-2,4-diamine]
- pIC50: 6.70 to 7.30

SMILES: CNc1nc(Nc2c(F)ccc3nn(C)cc23)ncc1C(F)(F)F [Example 41, N2-(5-fluoro-2-methyl-2H-indazol-4-yl)-N4-methyl-5-(trifluoromethyl) pyrimidine-2,4-diamine]
- pIC50: ≤ 6.70

SMILES: CNc1nc(Nc2c(C)ccc3c2cnn3C)ncc1C(F)(F)F [Example 36, N2-(1,5-dimethyl-1H-indazol-4-yl)-N4-methyl-5-(trifluoromethyl)pyrimidine-2,4-diamine]
- pIC50: 6.70 to 7.30
